In US5411733A (priority 1992, dated 1995):
Values joined by “and” are separate entries in the source; they are usually repeats but may differ in a detail not shown here. Identical values can stand only once. Like-named read-outs stand apart in the source and are kept apart here.

Legend:
[1] = test system: Herpes simplex virus type I (Seibert strain); assay: microbe, parasite or virus in culture; assay type: cell-based; settings: read-out: Plaque Formation Efficiency, Acv
[2] = Acv concentration in guinea pig blood; assay type: in vivo; settings: for concentration at 1 h: serum, 200 mg, one hour
Method: An Acv suspension or a mixture of Acv and an extract solution of Cryt. f.# was orally or intragastrointestinally administered to a guinea pig. One hour from the administration, blood was taken from the heart, and an inactivated serum was prepared therefrom in the same manner as in Test Example 9.
(§1) To a 100 μl aliquot of the serum were added 100 μl of acetonitrile and 20 μl of a 100 mM sodium acetate solution, and the mixture was centrifuged (10000 rpm×10 mins.).
(§2) The sample solution was separated into Acv and adenine by reverse phase liquid chromatography in a usual manner. Each peak area was measured with an automatic integrator, and the Acv content was obtained from the previously prepared calibration curve.

[3] = Acv level in mouse blood (p.o.); assay type: in vivo, DDY male mouse
Method: as §1, §2
Further, 0.5 ml of an Acv preparation or 0.5 ml of a mixture of Acv and a varied concentration of Cryt. f.# extract solution was orally administered to a 6-week-old DDY male mouse, and the Acv concentration in blood was measured in the same manner as described above. […] Accordingly, the Cryt. f.# extract solution is believed to have antiherpesviral activity by itself.

[4] = lung; cited from earlier work

SMILES | activity at 0.35 µg/mL [1] [%] | effect of Cryt. f.# on Acv absorption ([2]; Table 12) | concentration at 1 h ([2]; Acv (200 mg) + 1 mg/ml of Cryt. f.#, individual samples, read-out: Acv Concentration in Blood) [nM] | concentration at 1 h ([2]; Acv (200 mg) + 1 mg/ml of Cryt. f.#, read-out: Acv Concentration in Blood, Mean ± σ) [nM] | concentration at 1 h ([2]; Acv (200 mg) + 5 mg/ml of Cryt. f.#, individual samples, read-out: Acv Concentration in Blood) [nM] | concentration at 1 h ([2]; Acv (200 mg) + 5 mg/ml of Cryt. f.#, read-out: Acv Concentration in Blood, Mean ± σ) [nM] | concentration at 1 h ([2]; Acv (200 mg) + 20 mg/ml of Cryt. f.#, read-out: Acv Concentration in Blood, Mean ± σ) [nM] | concentration at 1 h ([2]; Acv (200 mg), read-out: Acv Concentration in Blood, Mean ± σ) [nM] | concentration ([3]; Acv (10 mg/kg) p.o., read-out: Acv Blood Level, Mean ± σ) [nM] | concentration ([3]; Acv (100 mg/kg) + 2 mg/ml of Cryt. f.#, p.o., individual samples, listed as Acv, 100 mg/kg, read-out: Acv Blood Level) | concentration ([3]; Acv (100 mg/kg) + 2 mg/ml of Cryt. f.#, p.o., read-out: Acv Blood Level, Mean ± σ) [nM] | concentration ([3]; Acv (100 mg/kg) + 10 mg/ml of Cryt. f.#, p.o., individual samples, listed as Acv, 100 mg/kg, read-out: Acv Blood Level) | concentration ([3]; Acv (100 mg/kg) + 10 mg/ml of Cryt. f.#, p.o., read-out: Acv Blood Level, Mean ± σ) [nM] | concentration ([3]; Acv (100 mg/kg) + 20 mg/ml of Cryt. f.#, p.o., read-out: Acv Blood Level, Mean ± σ) [nM] | effect of Cryt. f.# on Acv concentration in blood ([3]; mouse, Table 13) | distribution [4]
Nc1nc2c(ncn2COCCO)c(=O)[nH]1 [Acyclovir, acyclovir] | 53.6 | it is not recognized that the Acv absorption was accelerated | 76400 | 92900 ± 31900 | 92900 | 88300 ± 17400 | 72200 ± 70400 | 88600 ± 85600 | 2280 ± 1490 | 1700 nM and 1400 nM and 1600 nM and 2500 nM and 4700 nM and 2900 nM and 2000 nM and 2400 nM and 9500 nM and 2300 nM | 3100 ± 2430 | 2300 nM and 1100 nM and 3500 nM and 1600 nM and 1900 nM and 2600 nM and 1500 nM and 5200 nM | 2460 ± 1330 | 2590 ± 1530 | no increase in Acv concentration in blood was observed | –
C=CC[C@@H]1/C=C(\C)C[C@H](C)C[C@H](OC)[C@H]2O[C@@](O)(C(=O)C(=O)N3CCCC[C@H]3C(=O)O[C@H](/C(C)=C/[C@@H]3CC[C@@H](O)[C@H](OC)C3)[C@H](C)[C@@H](O)CC1=O)[C@H](C)C[C@@H]2OC [FK 506] | – | – | – | – | – | – | – | – | – | – | – | – | – | – | – | concentrated in the lung
